T1: SASPase-FLG2 interaction (Homo sapiens, UniProt Q53RT3, D212A)
T1 construct: made in house; host or cells: E. coli BL21DE3
T1 sequence (Q53RT3 85-343 D212A): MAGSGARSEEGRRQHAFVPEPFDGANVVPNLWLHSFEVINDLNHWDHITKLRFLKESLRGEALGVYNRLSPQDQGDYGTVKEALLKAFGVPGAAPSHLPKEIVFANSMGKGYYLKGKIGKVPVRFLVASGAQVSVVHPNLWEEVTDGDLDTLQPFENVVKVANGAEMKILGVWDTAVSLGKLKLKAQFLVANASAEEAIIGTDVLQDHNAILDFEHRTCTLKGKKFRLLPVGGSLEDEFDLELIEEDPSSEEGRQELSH

T2: recombinant SASPase (28 kDa) (Homo sapiens, UniProt Q53RT3)
T2 construct: made in house
T2 sequence (Q53RT3 85-343): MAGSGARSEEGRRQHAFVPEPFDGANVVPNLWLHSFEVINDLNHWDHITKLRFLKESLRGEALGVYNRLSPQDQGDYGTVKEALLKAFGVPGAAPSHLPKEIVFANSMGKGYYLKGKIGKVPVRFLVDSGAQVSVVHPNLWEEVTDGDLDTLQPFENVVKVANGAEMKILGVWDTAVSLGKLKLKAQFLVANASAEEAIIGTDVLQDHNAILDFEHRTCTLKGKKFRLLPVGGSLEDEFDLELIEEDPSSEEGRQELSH


Legend:
[1] = test system: reconstructed human epidermis Episkin J6; assay: Western blotting of differentiation markers in Episkin reconstructed epidermis; type: cell-based; details: Episkin epidermis cultured in the presence of M7 (10 μM, 1 μM, 0.5 μM)
Method: (§1) A model of reconstructed human epidermis Episkin J6 (reference 09-EPIS-015) was cultured by immersion in Episkin differentiation medium, 3.5 ml under insert in an oven at 37° C., 5% CO2, the medium being changed every 2 days.
(§2) The compound “M7” was tested at concentrations of 10 μM, 1 μM and 0.5 μM by incubation of the epidermal model with a differentiation culture medium supplied by EpiSkin®, comprising the compound at the test concentration or a buffer solution as control (DMSO at 0.1% final).
(§3) The effect of the compound “M7” on the differentiation and/or proliferation of epidermal cells is evaluated by measuring the thickness of the stratum corneum, and measurement of the expression and/or activation of transglutaminase I (TGI), caspase 14, SASPase, corneodesmosin, desmoglein 1 or protein Ki67.
The activation, expression and maturation of TGI, filaggrin, caspase 14, SASPase, corneodesmosin and desmoglein 1 were determined by western blotting.
For the western blotting, the soluble proteins, TGI, caspase 14, corneodesmosin and SASPase were extracted from two Episkin® nacelles with a manual potter in 1 ml of “native +” buffer (TBS, 1M NaCl, 0.1% Tween 20). The extract is centrifuged at 14 000 rpm, at 4° C. for 10 minutes. The supernatant obtained is filtered through a 0.45 μm Millipore filter (millex) and the proteins are then quantified by the BCA method (Pierce). The protein concentrations are equilibrated to 625 μg/ml final.
The extracts are deposited on a 10-20% Criterion gel (ref.: 345-0044 Bio-Rad) according to the supplier's protocol, and are then transferred onto a PVDF membrane via the semi-dry method.
The western blotting immunochemical detection is performed according to a standard protocol carried out with primary antibodies specific for the target and secondary antibodies coupled to HRP. Revelation is performed with the kits ECL; ECL plus; ECL advanced (Amersham) according to the necessary sensitivity and according to the supplier's protocol. The photon imaging apparatus used is the Fluor S Multilmager (Bio-Rad).
For TGI, primary antibody: Covalab pab 0061 at 1/100 produced in rabbits; secondary antibody: HRP-coupled anti-rabbit antibody at 1/4000: Bio-rad 170-6515
For caspase 14, primary antibody: Santa Cruz sc-5628 at 1/500 produced in rabbits; secondary antibody: HRP-coupled anti-rabbit antibody at 1/400: Bio-rad 170-6515
For corneodesmosin, primary antibody: Abnova 1041-M01 at 1/5000 produced in mice; secondary antibody: HRP-coupled anti-mouse antibody at 1/4000: Bio-rad 170-6516
For SASPase, primary antibody: Covalab 7H9a105 at 1/2000 produced in mice; secondary antibody: HRP-coupled anti-mouse antibody at 1/4000: Bio-rad 170-6516
For the western blotting of filaggrin and desmoglein 1, these proteins are extracted from the pellet obtained during the extraction of the “soluble” proteins. The pellets are ground with an electric potter in 200 μl of whole Laemmli buffer ([…] Tris; 2% SDS; 200 mM DTT; 10% glycerol) and then heated at 90° C. for 10 minutes and finally centrifuged for 10 minutes at 14 000 rpm at room temperature.
The supernatants obtained are assayed for proteins via the Bradford method (cytoskeleton). The total protein concentrations are equilibrated to 1 mg/ml final. A western blotting protocol identical to the previous one is applied.
For desmoglein 1, primary antibody: Progen 61002 at 1/100 produced in mice; secondary antibody: HRP-coupled anti-mouse antibody at 1/4000: Bio-rad 170-6516

SASPase-FLG2 interaction = target: T1, SASPase-FLG2 interaction; assay: HTRF (FRET) screening of agents that modulate the SASPase-FLG2 interaction; type: binding; details: SASPase85-343D212A-GST 50 nM, FLG22-213-S-His-THX 200 nM, PBS pH 7.4; read-out: IC50, inhibition of the SASPase-FLG2 interaction
Method: The process developed is based on the FLG2-SASPase interaction and uses the homogeneous time-resolved fluorescence (or HTRF) technique.
A recombinant SASPase protein (comprising the amino acid sequence 85-343 of Q53RT3) mutated at its active site (D212A of Q53RT3) and fused with the GST (glutathione S-transferase from Schistosoma japonicum) affinity marker, at its C-terminal end, was prepared in the vector pGEX-4-T3 (GenBank U13855) (SASPase85-343D212A-GST). The D212A mutation was introduced to inactivate the SASPase and to promote a stable interaction with FLG2. […]
Antibodies recognizing, respectively, the affinity markers GST or His-S.Tag, and bearing, respectively, an EuK fluorescence donor group (europium cryptate λex 337 nm/λem 620 nm) or an XL1665 fluorescence receiver group (λex 570-630 nm/λem 665 nm) are used to monitor the peptide-SASPase interaction.
The SASPase-FLG2 interaction was observed by fluorescence energy transfer (FRET) between the fluorescent markers Euk and XL1665. The Euk fluorescence donor was excited at λex 337 nm and the fluorescence emission of the XL1665 fluorescence acceptor was measured at λem 665 nm.
The Euk fluorescence emission at λem 620 nm, taking place independently of the interaction between SASPase and FLG2, was used to normalize the signal. Thus, for each point, a ratio λem 665/λem 620 is determined. […]

[2] = test system: reconstructed human epidermis Episkin J6; assay: Stratum corneum thickness by histological observation on slices of Episkin reconstructed epidermis; type: cell-based; details: tested at 10 μM, 1 μM and 0.5 μM; observed at and above the lowest concentration tested
Method: as §1, §2, §3
The thickness of the stratum corneum was estimated by histological observation on slices.

[3] = test system: reconstructed human epidermis Episkin J6; assay: Ki67 immunofluorescence on frozen slices of Episkin reconstructed epidermis; type: cell-based; details: Episkin epidermis cultured in the presence of M7 (10 μM, 1 μM, 0.5 μM)
Method: as §1, §2, §3
The activation, expression and maturation of Ki67 were determined by immunofluorescence on frozen slices.
The immunofluorescence labeling on frozen slices is performed using a standard protocol, with a PBS buffer; 0.2% BSA for the steps of washing and incubation of the primary and secondary antibodies, and with a PBS buffer; 5% BSA for the step for blocking the nonspecific sites.
For the detection of Ki67, primary antibody: Novocastra mm1 at 1/20 produced in mice; secondary antibody: AlexaFLuor A488-coupled anti-mouse antibody at 1/1000 (Molecular Probes A11017). […]

[4] = target: T2, recombinant SASPase (28 kDa); assay: Enzymatic activation of SASPase by FLG2 (hydrolysis of fluorescent substrate Dabcyl-QIDRIMEK-Edans); type: biochemical; details: for enzymatic activity of the SASPase: increasing concentration of FLG2 form (0.01 to 10 times SASPase 0.025 mg/ml), acetate/acetic acid buffer pH 5.5, 37° C.
Method: The enzymatic reaction is performed in an acetate/acetic acid buffer. The FIGURE illustrates the mean±sem of an experiment performed in duplicate.
A 28-kDa recombinant SASPase corresponding to the amino acid sequence 85 to 343 of the sequence Q53RT3 (Uniprot/Swissprot ref.) was prepared as described by Bernard et al. (J. Invest. Dermatol., 2005, 125: 278-287) (SASPase85-343).
The SASPase was dissolved in a PBS buffer and used at a final concentration of 0.025 mg/ml in the presence of a final concentration of a colorimetric substrate Dabcyl-QIDRIMEK-Edans of 0.01 mM (Production Jerini Peptide Ref. D17: JPT Peptide Technologies GmbH).
FLG2-Hs and FLG2-AbD are used at concentrations corresponding to 0.01, 0.02, 0.04, 0.08, 0.16, 0.31, 0.63, 1.25, 2.5, 5 or 10 times the final concentration of SASPase, i.e. 0.025 mg/ml.
SASPase and FLG2-Hs, or FLG2-AbD, are incubated at 37° C. in a 0.1 M acetate/acetic acid buffer at pH 5.5 containing 150 mM of NaCl, in the presence of Dabcyl-QIDRIMEK-Edans.
The hydrolysis of the colorimetric substrate by the activated SASPase leads to the separation of the Edans fluorochrome and of its Dabcyl deactivator (or quencher), and to an increase in the fluorescence of Edans.
Measurement of the fluorescent signal is performed at λex 340 nm/[…]. The fluorescence is read every 10 minutes for 1 hour 30 minutes at 37° C., with a Spectramax M5e (Molecular Devices).

IC50 (SASPase-FLG2 interaction) [nM] | FLG2 concentration at and above which activation of SASPase proteolytic activity is obtained ([4]; SASPase 0.025 mg/ml) | Molecule | expression and activation of SASPase [1] | expression and activation of TGI (transglutaminase I) [1] | expression and activation of caspase 14 [1] | expression and activation of corneodesmosin [1] | expression and activation of desmoglein [1] | thickness of the stratum corneum [2] | activation and expression of the protein Ki67 [3] | enzymatic activity of the SASPase [4]
~2000 | – | Cc1ccc(C(=O)Oc2cccc(C3C4=C(Nc5c3c(=O)n(C)c(=O)n5C)c3ccccc3C4=O)c2)cc1 (centres unmarked) [M7] | increase | increase | increase | increase | increase | thickening | decrease | –
– | – | FLG2-AbD: recombinant filaggrin-2, amino acids 81-212 of Q5D862, fused N-terminally to thioredoxin-His-S.Tag; inactive form (protein, UniProt Q5D862 81-212, looked up, fragment, N-terminal thioredoxin-His-S.Tag fusion) LTMACNKVLSKEYCKASGSKKHRRGHRHQEEESETEEDEEDTPGHKSGYRHSSWSEGEEHGYSSGHSRGTVKCRHGSNSRRLGRQGNLSSSGNQEGSQKRYHRSSCGHSWSGGKDRHGSSSVELRERINKSH | – | – | – | – | – | – | – | virtually unchanged
– | equivalent to that of the SASPase | FLG2-Hs: recombinant filaggrin-2, amino acids 2-213 of Q5D862, fused N-terminally to thioredoxin-His-S.Tag; active form (protein, UniProt Q5D862 2-213, looked up, fragment, N-terminal thioredoxin-His-S.Tag fusion) TDLLRSVVTVIDVFYKYTKQDGECGTLSKGELKELLEKELHPVLKNPDDPDTVDVIMHMLDRDHDRRLDFTEFLLMIFKLTMACNKVLSKEYCKASGSKKHRRGHRHQEEESETEEDEEDTPGHKSGYRHSSWSEGEEHGYSSGHSRGTVKCRHGSNSRRLGRQGNLSSSGNQEGSQKRYHRSSCGHSWSGGKDRHGSSSVELRERINKSHI | – | – | – | – | – | – | – | significantly increased
